For data set [1], the species on record is Homo sapiens. In words: Inhibition of mRNA splicing of SMN2 exon 7 in fibroblasts derived from human SMA type 1/2/3 patient assessed as increase in SMN protein level after 48 hrs by HTRF assay. For orientation: In TR-FRET formats the signal depends on donor and acceptor labels being close together.
The nature of data set [2]: Mutagenicity in Salmonella typhimurium TA1535 assessed as increase in revertant colonies after 2 days in presence of rat liver S9 fraction by Ames test relative to control. It is filed as toxicity. Particulars: salmonella enterica subsp. enterica serovar typhimurium, s9, 48 h. (In general: In the Ames test, an excess of revertant colonies over the control signals mutagenicity.)

The nature of data set [3]: Mutagenicity in Salmonella typhimurium TA98 assessed as increase in revertant colonies after 2 days in presence of rat liver S9 fraction by Ames test relative to control. It is filed as toxicity. The note with it: salmonella enterica subsp. enterica serovar typhimurium, s9, 48 h.
Data set [4] can be described thus: Mutagenicity in Salmonella typhimurium TA97 assessed as increase in revertant colonies after 2 days in presence of rat liver S9 fraction by Ames test relative to control. Particulars: salmonella enterica subsp. enterica serovar typhimurium, s9, 48 h. The data set is classed as toxicity.
Data set [5] is described as follows: Mutagenicity in Salmonella typhimurium TA100 assessed as increase in revertant colonies after 2 days in presence of rat liver S9 fraction by Ames test relative to control. The data set is classed as toxicity. The note with it: salmonella enterica subsp. enterica serovar typhimurium, s9, 48 h.
Data set [6] can be described thus: Mutagenicity in Salmonella typhimurium TA102 assessed as increase in revertant colonies after 2 days in presence of rat liver S9 fraction by Ames test relative to control. The data set is classed as toxicity. Particulars: salmonella enterica subsp. enterica serovar typhimurium, s9, 48 h.
For data set [7], the species on record is Homo sapiens. In words: Inhibition of mRNA splicing of SMN2 exon 7 in GM03813 fibroblasts derived from human SMA type 1 patient after 24 hrs by RT-qPCR analysis. On the technique in general: Quantitative PCR measures a nucleic acid by following its amplification.
The nature of data set [8]: Stability in human plasma assessed as compound remaining after 5 hrs. It is filed as ADME, cell-free. Particulars: read-out: Stability.
The subject of data set [9] is NIH3T3. In words: Phototoxicity in mouse 3T3 cells in presence of UVA irradiation. It is filed as functional, cell-based. Particulars: NIH3T3, light or radiation study.
Data set [10] can be described thus: Octanol-aqueous phosphate buffer distribution coefficient, log D of the compound at pH 7.4 at 100 mM after 24 hrs by LC-MS based shake flask method. It is filed as physicochemical.
The target of data set [11] is P-gp (ABCB1) (Homo sapiens, UniProt P08183). In words: Substrate activity at human P-gp assessed as efflux ratio by cell based assay. Particulars: not told.
P-gp (ABCB1), sequence (P08183 whole entry): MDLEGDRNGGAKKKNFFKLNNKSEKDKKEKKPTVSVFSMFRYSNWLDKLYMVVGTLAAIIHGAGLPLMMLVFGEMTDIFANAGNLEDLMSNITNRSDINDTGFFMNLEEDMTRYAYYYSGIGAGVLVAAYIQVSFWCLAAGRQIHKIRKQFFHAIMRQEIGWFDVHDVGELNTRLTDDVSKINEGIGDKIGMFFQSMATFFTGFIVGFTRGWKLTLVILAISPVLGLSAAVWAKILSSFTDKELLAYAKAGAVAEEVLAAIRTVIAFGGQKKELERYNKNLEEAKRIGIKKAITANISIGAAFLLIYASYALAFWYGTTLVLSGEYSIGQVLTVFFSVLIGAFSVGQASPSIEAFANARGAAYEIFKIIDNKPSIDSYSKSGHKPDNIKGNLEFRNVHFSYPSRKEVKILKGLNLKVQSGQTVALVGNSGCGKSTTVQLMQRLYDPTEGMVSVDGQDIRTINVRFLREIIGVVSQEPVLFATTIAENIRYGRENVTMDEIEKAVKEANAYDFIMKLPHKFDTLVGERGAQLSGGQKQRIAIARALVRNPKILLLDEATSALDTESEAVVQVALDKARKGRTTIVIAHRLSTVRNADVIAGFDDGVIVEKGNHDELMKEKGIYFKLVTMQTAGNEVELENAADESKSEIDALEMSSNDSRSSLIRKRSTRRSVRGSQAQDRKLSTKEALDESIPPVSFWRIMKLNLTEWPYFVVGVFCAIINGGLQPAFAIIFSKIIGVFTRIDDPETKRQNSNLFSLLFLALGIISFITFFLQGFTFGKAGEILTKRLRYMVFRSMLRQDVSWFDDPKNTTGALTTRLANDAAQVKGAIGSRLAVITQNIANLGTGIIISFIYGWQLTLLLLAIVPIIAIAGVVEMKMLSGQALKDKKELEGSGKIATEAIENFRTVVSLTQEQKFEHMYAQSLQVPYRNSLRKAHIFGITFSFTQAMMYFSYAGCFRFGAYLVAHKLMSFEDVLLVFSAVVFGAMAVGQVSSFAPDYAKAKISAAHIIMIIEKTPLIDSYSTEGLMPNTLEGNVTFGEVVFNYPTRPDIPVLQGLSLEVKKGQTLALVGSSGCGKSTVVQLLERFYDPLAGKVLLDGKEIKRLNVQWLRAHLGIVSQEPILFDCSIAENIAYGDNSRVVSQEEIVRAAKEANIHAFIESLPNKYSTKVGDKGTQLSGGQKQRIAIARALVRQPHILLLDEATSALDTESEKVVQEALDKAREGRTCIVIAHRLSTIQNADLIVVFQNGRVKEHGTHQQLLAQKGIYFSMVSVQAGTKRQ
Data set [12] is described as follows: Stability of the compound in human plasma. The data set is classed as ADME, cell-free.
Data set [13] can be described thus: Stability of the compound in pH 1 to 12 aqueous buffer. The data set is classed as physicochemical.

pIC50: −log10 of the molar value. Calls of active or inactive are those of the source. The calls are words filed in the database; no cut-off is given here.

As to `Cc1cn2cc(-c3cc(=O)n4cc(N5CCNCC5)ccc4n3)cc(F)c2n1`, the EC1.5 in data set [1] stood at 9 nM; in data set [7], 1 nM. The Activity entry in data set [2], in data set [3], in [4], in [5] and in data set [6] was “Non-Toxic” each time.

For `CC(=O)c1cc2ccc(F)cc2c(=O)o1`, the remaining at 5 h in [8] is 16%.

Turning to `Cc1nc2ccc(-c3cc(=O)n4cc(N5CCN(C)CC5)ccc4n3)cn2n1`, the results for the EC1.5 in [1] and in data set [7] were 820 nM and 314 nM, respectively. Moreover, the fold change (FC) in data set [2] was under 2; in data set [3], under 2; in [4], under 1.5; in data set [5], under 1.5; in data set [6], under 1.5.

Consider `Cc1cn2cc(-c3cc4ccc(N5CCN(C)CC5)cc4c(=O)o3)nc2c(C)n1`, for which the remaining at 5 h in [8] was found to be 55%. Moreover, the pIC50 (in general, −log10 of the IC50, conventionally taken in molar units) in data set [9] is 6.82.

With `CN1CCN(c2ccc3nc(-c4ccc5nccn5c4)cc(=O)n3c2)CC1`, the values for the EC1.5 in data set [1] and in data set [7] were 3400 nM and 582 nM, respectively. Moreover, the fold change (FC) in data set [2] was under 2; in data set [3], under 2; in data set [4], under 1.5; in [5] it was under 1.5; in [6] it was under 1.5.

Turning to `CCc1nc(C)cn2nc(-c3cc(=O)n4cc(C5=CCNCC5)cc(C)c4n3)cc12`, the EC1.5 is 15 nM in data set [1] and 6 nM in [7]. In addition, the Activity entry in data set [2], in data set [3], in data set [4], in [5] and in data set [6] was “Non-Toxic” throughout.

Consider `Cc1cn2cc(-c3cc(=O)n4cc(N5CCC(N6CCC6)CC5)ccc4n3)cc2c(C)n1`, for which, in data set [1], the EC1.5 was 46 nM. The logD – broadly, lipophilicity at a set pH, counting ionised and neutral species – at 24 h in [10] was determined as 1.53. The efflux ratio (as a rule, the permeability from basolateral to apical divided by that in the opposite direction, in the common usage) in data set [11] amounted to 6.6.

Consider `CN1CCN(c2ccc3nc(-c4ccc5c(c4)ncn5C)cc(=O)n3c2)CC1`, for which the EC1.5 result in [1] and in data set [7] was “inactive” each time. The fold change (FC) in data set [2] was under 2; in data set [3], under 2; in data set [4], under 1.5; in data set [5], under 1.5; in data set [6], under 1.5.

In the case of `Cc1cn2nc(-c3cc(=O)n4cc(C5CCN(C)CC5)cc(C)c4n3)cc2c(C)n1`, the EC1.5 is 77 nM in data set [1] and 57 nM in data set [7]. The Activity entry in data set [2], in data set [3], in data set [4], in data set [5] and in data set [6] was “Non-Toxic” throughout. The same compound registered a logD at 24 h in [10] of 1.82. Also, the efflux ratio in [11] came to 1.2.

Turning to `Cc1cn2cc(-c3cc(=O)n4cc(N5CCC(N6CCCC6)CC5)ccc4n3)cc(C(F)(F)F)c2n1`, the EC1.5 in [1] worked out at 76 nM. This compound also yielded a pH-dependent lipophilicity (logD) at 24 h in data set [10] of 1.45. Besides, the efflux ratio in data set [11] turned out to be 8.5.

Take `CCN1CCC(c2cc(C)c3nc(-c4cc5c(C)nc(C)cn5n4)cc(=O)n3c2)CC1`: the figures for the EC1.5 in data set [1] and in data set [7] were 84 nM and 30 nM, respectively. Besides, the Activity result in [2], in data set [3], in data set [4], in data set [5] and in data set [6] was “Non-Toxic” throughout. This compound also returned a log distribution coefficient (logD) at 24 h in data set [10] of 1.87. Also, the efflux ratio in [11] came out at 1.4.

In the case of `CCc1nc(C)cn2nc(-c3cc(=O)n4cc(N5CCN6CCC[C@H]6C5)ccc4n3)cc12`, the EC1.5 was determined as 163 nM in data set [1] and 40 nM in data set [7]. Besides, the Activity result in [2], in [3], in data set [4], in data set [5] and in data set [6] was “Non-Toxic” in each case.

Turning to `Cc1cn2cc(-c3cc4ccc(F)cc4c(=O)o3)nc2c(C)n1`, in [8], the remaining at 5 h is 30%.

Regarding `Cc1nc2c(F)cc(-c3cc(=O)n4cc(N5CCN(C)CC5)ccc4n3)cc2o1`, the EC1.5 in data set [1] is 13 nM; in data set [7], 3 nM. Further, the fold change (FC) is under 2 in data set [2]; under 2 in data set [3]; under 1.5 in data set [4]; under 1.5 in data set [5]; under 1.5 in data set [6]. In addition, the log distribution coefficient (logD) at 24 h in data set [10] was determined as 2.46. In addition, in [11], the efflux ratio was 1.1.

Consider `Cc1cn2cc(-c3cc(=O)n4cc(N5CCN(C)CC5)ccc4n3)ccc2n1`, for which the EC1.5 in [1] amounted to 760 nM; in [7], 182 nM. The fold change (FC) is under 2 in data set [2]; under 2 in data set [3]; under 1.5 in [4]; under 1.5 in [5]; under 1.5 in data set [6].

For `CCN1CCN(c2ccc3cc(-c4cn5cc(C)nc(C)c5n4)c(=O)oc3c2)C[C@@H]1C`, the remaining at 5 h in data set [8] is 93%. Further, the pIC50 in data set [9] is 7.10.

For `Cc1cn2nc(-c3cc(=O)n4cc(N5CCN(C)CC5)ccc4n3)cc2c(C)n1`, the EC1.5 in data set [1] was 170 nM; in [7], 92 nM. Also, the Activity entry in data set [2], in data set [3], in data set [4], in data set [5] and in data set [6] was “Non-Toxic” in each case. Further, the pIC50 in [9] was 5.54. Also, the Stability result in data set [12] and in data set [13] was “Stable” throughout.

On to `Cc1nc2ccc(-c3cc(=O)n4cc(N5CCN(C)CC5)ccc4n3)cc2o1`, for which the results for the EC1.5 in data set [1] and in data set [7] were 395 nM and 148 nM, respectively. Moreover, the fold change (FC) in data set [2] is under 2; in data set [3] it was under 2; in data set [4], under 1.5; in data set [5] it was under 1.5; in data set [6], under 1.5.

As to `Cc1nc2c(F)cc(-c3cc(=O)n4cc(N5CCNCC5)ccc4n3)cc2o1`, the EC1.5 in [1] is 4 nM; in [7], 1 nM. In addition, the fold change (FC) is under 2 in data set [2]; under 2 in [3]; under 1.5 in data set [4]; under 1.5 in data set [5]; under 1.5 in data set [6].

The values are drawn from ChEMBL document CHEMBL4477215, “Specific Correction of Alternative Survival Motor Neuron 2 Splicing by Small Molecules: Discovery of a Potential Novel Medicine To Treat Spinal Muscular Atrophy” (J Med Chem, 2016).
